{"source": "paper PMC7153278", "about": "“Discovery of Membrane-Bound Pyrophosphatase Inhibitors Derived from an Isoxazole Fragment” (ACS Medicinal Chemistry Letters, 2020)", "key": {"[1]": {"target": "P. falciparum vacuolar H+-translocating pyrophosphatase (PfPPase-VP1) (Plasmodium falciparum, UniProt Q8IKR1)", "sequence (Q8IKR1 entry or part of it)": "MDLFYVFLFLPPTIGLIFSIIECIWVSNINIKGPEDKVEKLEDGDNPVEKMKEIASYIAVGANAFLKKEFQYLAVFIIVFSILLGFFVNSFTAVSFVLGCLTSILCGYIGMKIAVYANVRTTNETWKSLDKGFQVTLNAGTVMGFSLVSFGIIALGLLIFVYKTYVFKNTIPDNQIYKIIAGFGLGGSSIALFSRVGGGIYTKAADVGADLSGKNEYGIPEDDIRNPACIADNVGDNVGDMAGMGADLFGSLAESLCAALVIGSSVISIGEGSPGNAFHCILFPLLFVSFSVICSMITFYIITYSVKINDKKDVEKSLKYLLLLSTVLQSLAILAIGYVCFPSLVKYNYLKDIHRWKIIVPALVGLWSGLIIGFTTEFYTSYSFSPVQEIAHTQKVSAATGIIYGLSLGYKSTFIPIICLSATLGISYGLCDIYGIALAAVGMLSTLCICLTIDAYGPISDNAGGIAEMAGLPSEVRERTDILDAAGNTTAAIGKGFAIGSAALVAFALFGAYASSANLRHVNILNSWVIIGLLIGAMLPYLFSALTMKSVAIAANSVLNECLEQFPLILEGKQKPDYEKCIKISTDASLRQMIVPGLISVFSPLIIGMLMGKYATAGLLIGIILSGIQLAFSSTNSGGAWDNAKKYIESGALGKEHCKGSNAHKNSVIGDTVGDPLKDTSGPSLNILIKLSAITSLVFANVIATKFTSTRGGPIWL", "assay": "PfPPase-VP1 inhibition assay on membrane fractions from baculovirus-infected insect cells", "assay_type": "biochemical", "settings": "PfPPase-VP1 in the membrane", "description": "We then addressed the potential of 12k and 12l for translation to pathogenic proteins. These analogues differ by replacement of two methyl groups by two tert-butyl groups. In order to do so, we expressed the PfPPase-VP1 gene (PF3D7_1456800) in baculovirus-infected insect cells and performed the inhibition assay on the PfPPase-VP1 in the membrane (the method and further analysis will be described in more detail elsewhere).\nThe inhibition assay was measured in 96 well plate assay as previously reported.5,6 Briefly, 1 µL of purified TmPPase (13 mg/mL) was reactivated in 99 µL of reactivation buffer (20 mM 2-(N-morpholino) ethanesulfonic acid (MES) pH 6.5, 3.5% (v/v) glycerol, 2 mM dithiothreitol (DTT), 4.5% dodecyl maltoside (DDM) and 12 mg/mL L-α-phosphatidylcholine from soybean) and incubated at 55 °C for 15 min. For the assay, to each tube strips, 0.2 µL of the reactivated enzyme was added to 14.8 µL of reaction buffer (200 mM Tris-Cl pH 8.0, 8.0 mM MgCl2, 333 mM KCl, and 67 mM NaCl) and 25 µL of inhibitor. The reaction mixtures were sealed with an adhesive sealing sheet (Thermo Scientific) and incubated at 71 °C for 5 min. […] 180 µL of each reaction mixtures was then transferred into a clear 96 well polystyrene microplate and the absorbance was measured at 860 nm using a microplate spectrophotometer (MultiSkan Go, Thermo Scientific). […]"}, "[2]": {"target": "Thermotoga maritima mPPase (TmPPase) (Thermotoga maritima, UniProt Q9S5X0)", "sequence (Q9S5X0 whole entry)": "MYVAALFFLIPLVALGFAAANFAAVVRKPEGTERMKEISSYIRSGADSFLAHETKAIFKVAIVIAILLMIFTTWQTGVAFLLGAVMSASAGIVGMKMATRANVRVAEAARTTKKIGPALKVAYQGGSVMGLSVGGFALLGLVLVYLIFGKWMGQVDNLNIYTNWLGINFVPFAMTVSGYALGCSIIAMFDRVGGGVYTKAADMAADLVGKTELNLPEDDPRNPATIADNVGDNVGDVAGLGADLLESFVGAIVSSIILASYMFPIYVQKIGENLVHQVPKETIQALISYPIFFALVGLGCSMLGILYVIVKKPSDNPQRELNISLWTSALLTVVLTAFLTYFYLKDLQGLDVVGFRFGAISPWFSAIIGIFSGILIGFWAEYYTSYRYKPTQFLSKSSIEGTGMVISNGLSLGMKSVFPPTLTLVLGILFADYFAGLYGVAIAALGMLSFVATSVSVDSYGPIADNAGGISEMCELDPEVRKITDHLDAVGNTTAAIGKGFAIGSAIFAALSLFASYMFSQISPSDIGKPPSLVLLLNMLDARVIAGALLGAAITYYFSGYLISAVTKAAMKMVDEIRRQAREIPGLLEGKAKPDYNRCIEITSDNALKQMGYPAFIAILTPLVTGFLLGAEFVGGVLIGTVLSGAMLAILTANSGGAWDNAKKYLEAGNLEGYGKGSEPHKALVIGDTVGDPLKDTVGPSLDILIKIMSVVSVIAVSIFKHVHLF", "assay": "TmPPase inhibition assay (96-well plate, orthophosphate determination)", "assay_type": "biochemical", "settings": "computed using the pIC50 and the Heavy Atom Count (LEHA) normalization method, Discovery Studio", "description": "The inhibition assay was measured in 96 well plate assay as previously reported.5,6 Briefly, 1 µL of purified TmPPase (13 mg/mL) was reactivated in 99 µL of reactivation buffer (20 mM 2-(N-morpholino) ethanesulfonic acid (MES) pH 6.5, 3.5% (v/v) glycerol, 2 mM dithiothreitol (DTT), 4.5% dodecyl maltoside (DDM) and 12 mg/mL L-α-phosphatidylcholine from soybean) and incubated at 55 °C for 15 min. For the assay, to each tube strips, 0.2 µL of the reactivated enzyme was added to 14.8 µL of reaction buffer (200 mM Tris-Cl pH 8.0, 8.0 mM MgCl2, 333 mM KCl, and 67 mM NaCl) and 25 µL of inhibitor. The reaction mixtures were sealed with an adhesive sealing sheet (Thermo Scientific) and incubated at 71 °C for 5 min. The reactions were started with the addition of 10 µL of 2 mM sodium pyrophosphate, further incubation at 71 °C for 5 min and stopped by placing the reaction mixtures on ice for 10 min. The color development was done with the addition of ammonium heptamolybdate + ascorbic acid solution on ice for 10 min and then 90 µL of arsenic solution, at room temperature, for a minimum of 30 min. 180 µL of each reaction mixtures was then transferred into a clear 96 well polystyrene microplate and the absorbance was measured at 860 nm using a microplate spectrophotometer (MultiSkan Go, Thermo Scientific). The pilot inhibitor screening of 16 phosphate-mimicking fragments was done at 100 μM inhibitor concentration. Further screening was done with three different concentrations; 1 μM, 5 μM and 50 μM for soluble compounds, and 1 μM, 5 μM, and 20 μM for sparingly soluble compounds.6 The best hits were validated using 8 concentrations in triplicate in TmPPase.\nThe potent hits 12k and 12l compounds were then tested on the P. falciparum (PfPPase-VP1) membrane fractions expressed in baculovirus-infected insect cells (the expression method and further enzyme analysis will be described in more detail elsewhere). Briefly, to each tube strips, 2.4 µL of PfPPase-VP1 membrane fraction (5 mg/mL) was added into 12.6 µL of reaction buffer (200 mM Tris-Cl pH 8.0, 8.0 mM MgCl2, 333 mM KCl, 67 mM NaCl, 3.3 mM NaF, and 17 μM Gramicidin D) and 25 µL of inhibitor. The reaction mixtures were incubated at 30 °C for 5 min and the assay was started by the addition of 10 µL of 2 mM sodium pyrophosphate and further incubation at 30 °C for 10 min. The reaction termination and color development were done as before.\nThe in vitro anti-plasmodial activity assay strain 3D7 was maintained in culture as described previously.7 Briefly, parasites were cultured in O+ human erythrocytes at 5% haematocrit in RPMI - 1640 medium supplemented with 0.5% Albumax II (Gibco, Carlsbad, CA, USA), 200 μM hypoxanthine (Sigma, St. Louis, MO, USA) and 20 μg/mL gentamycin (Gibco). Parasites were synchronized with the sorbitol method as described. 8 Test compound was dissolved in DMSO to make a stock solution of 10 mM. Two -fold serial dilutions of the test compound were made in the culture medium to cover the range of 400 µM – 400 nM. Fifty microliters of each dilution were mixed in 96 well plate with 150 µL of 2% haematocrit of 0.5% parasitemia (ring stage). DMSO concentration in the highest compound concentration w as 0.1%. After 72 h incubation at 37 °C, the parasite growth was quantified using fluorescent SYBR Green I ® -based assay as described. 9 The half-maximal inhibitory concentration (IC 50) of the test compound was assessed using the non-linear regression fit model in Prism 7 (GraphPad Software). The potent anti-malarial drug, artemisinin, was use in parallel as a positive control. Each concentration of the test compound was tested in duplicate and the assay was repeated three times. The mean and standard deviation of the three repeats were used to estimate the IC50.\nIC50 determinations were done using R 3.6.110 and the n-parameter logistic regression (nplr) package11 version 0.1-7. In this package, the weighted nplr, given x (compound concentrations) and […]"}}, "data": [{"smiles": "CC(C)(C)c1cc(-c2cc(C(=O)Oc3ccccc3Br)no2)cc(C(C)(C)C)c1", "note": "[Compound 12l]", "values": [{"measurement": "IC50, PfPPase-VP1 activity", "setting": "[1]", "result": "did not show inhibition at the tested concentrations"}, {"measurement": "LE (ligand efficiency)", "setting": "[2]", "result": 0.17}]}]}
